How the values were obtained:
Type in all cases: in vivo
[1] = test system: mouche domestique; assay: Knock-down activity on house fly, direct spray in Kearns and March chamber; details: for KT 50 en mn: direct spray, acetone/isopar L; for activité (conclusion): conclusion in words on the knock-down test
Description: 3°): Etude de l'activité de choc sur mouche domestique.
Les insectes tests sont des mouches domestiques femelles âgées de 4/5 jours. On opère par pulvérisation directe en chambre de Kearns et March en utilisant comme solvant un mélange en volumes égaux d'acétone et d'isopar L (quantité de solution utilisée 2 x 0,2 cm3). On utilise environ 50 insectes par dose de traitement. On effectue les contrôles toutes les minutes jusqu'à 10 minutes, puis à 15 minutes et l'on détermine le KT 50 par les méthodes habituelles.

[2] = test system: mouches domestiques; assay: Lethal effect on house flies, topical application; details: for activité (conclusion): conclusion in words on the lethal test on house flies; for DL 50 (ng par individu): female house flies 4/5 days old, topical 1 µl acetone solution on dorsal thorax, mortality 24 h after treatment
Description: 1°); Etude de l'effet létal sur mouches domestiques.
Les insectes tests sont des mouches domestiques femelles âgées de 4/5 jours. On opère par application topique de 1 ul de solution acétonique du produit sur le thorax dorsal des insectes à l'aide du micro manipulateur d'Arnold. On utilise 50 individus par dose et par traitement. On effectue le contrôle de mortalité vingt-quatre heures après traitement.
Le résultat obtenu exprimé en DL 50 ou dose (en nanogrammes) nécessaire pour tuer 50% des insectes, est le suivant: […]

[3] = test system: larves de Spodoptera littoralis; assay: Effect on Spodoptera littoralis larvae, topical application; details: for activité (conclusion): conclusion in words on the Spodoptera littoralis test; for DL 50 (ng par individu): fourth-instar larvae, topical acetone solution on dorsal thorax, mortality 48 h after treatment
Description: 2°): Etude de l'effet sur larves de Spodoptera littoralis.
Les essais sont effectués par application topique d'une solution acétonique du produit à tester à l'aide du micro manipulateur d'Arnold sur le thorax dorsal des larves. On utilise 15 larves par dose de produit à tester. Les larves utilisées sont des larves du quatrième stade larvaire, c'est-à-dire âgées d'environ 10 jours lorsqu'elles sont élevées à 24°C et 65% d'humidité relative. Après traitement, les individus sont placés sur un milieu nutritif artificiel (milieu de Poitout).
On effectue le contrôle des mortalités 48 heures après traitement.

[4] = test system: Tétranychus urticae; assay: Adulticide test on Tetranychus urticae on bean plants; details: dose 2,8 mg/I, sprayed bean plants, checks after 1, 24, 48 and 72 h of contact
Description: 5°): Activité sur Tétranychus urticae. (composé de l'exemple 1)
On utilise des plants de haricot comportant deux feuilles cotylédonaires. Ces plants sont traités au pistolet Fisher avec une solution acétonique du produit. Après séchage 25 femelles de l'acarien Tétranychus urticae sont disposées par feuilles soit 50 individus par dose expérimentée par plant. Les contrôles d'efficacité sont effectués après 1, 24, 48 et 72 heures de contact.

[5] = test system: blatte germanique (Blatella germanica); assay: Tarsal contact activity on German cockroach
Description: 4°): Etude de l'activité par contact tarsal sur blatte germanique. (composé de l'exemple 1J
Les insectes testés sont des mâles de blatte germanique (Blatella germanica). On opère par dépôt d'une solution acétonique de concentration déterminée sur le fond d'une boîte de Petri de 20 cm de diamètre. Après séchage on laisse séjourner 20 mâles de blattes par concentration durant 1 heure puis on transfère les insectes sur milieu sain et on contrôle leur mortalité à 24 h, 48 h, 3 et 5 jours.

| Compound | activité (conclusion) [1] | activité (conclusion) [2] | DL 50 (ng par individu) [2] | KT 50 en mn ([1]; Concentration 1 g/l) | other results |
| --- | --- | --- | --- | --- | --- |
| C=CCC1=C(C)[C@@H](OC(=O)[C@@H]2[C@H](/C=C\C(=O)OCC(F)(F)F)C2(C)C)CC1=O [Exemple 2, (1R cis) 2,2-diméthyl-3-/(Z)-3-oxo-3-(2,2,2-trifluoroéthoxy) 1-propényll cyclopropane carboxylatede (1S) 2-diméthyl-4-oxo-3-(2-propényl) 2-cyclopenten-1-yle] | bonne activité |  |  |  | KT 50 en mn ([1]; Concentration 0,25 g/l): 3,608 mn |
| CC1(C)[C@H](C(=O)O[C@H](C#N)c2cccc(Oc3ccccc3)c2)[C@@H]1/C=C\C(=O)OC(C(F)(F)F)C(F)(F)F [Exemple 23, (1R cis) 2,2-diméthyl-3-/(Z)-3-oxo 3-(2-(1,1,1,3,3,3-hexafluoro)propoxy) 1-propényl/ cyclopropane carboxylatede (S) a-cyano 3-phénoxy benzyle] |  | activité remarquable | 0,962 ng par individu |  |  |
| CC1(C)[C@H](C(=O)OC(C#N)c2cccc(Oc3ccccc3)n2)[C@@H]1/C=C\C(=O)OCC(F)(F)F (stereo partly drawn) [Exemple 30, (1R cis) 2,2-diméthyl-3-/(Z)-3-oxo 3-(2,2,2-trifluoro éthoxy) 1-propényl/ cyclopropane carboxylatede (RS) a-cyano 6-phénoxy 2-pyridyl méthyle] | bonne activité |  |  | 3,498 mn |  |
| C#C[C@@H](OC(=O)[C@@H]1[C@H](/C=C\C(=O)OCC(F)(F)F)C1(C)C)c1cccc(Oc2ccccc2)c1 [Exemple 29, (1R cis) 2,2-diméthyl-3-/(Z)-3-oxo 3-(2,2,2-trifluoro éthoxy) 1-propényl/ cyclopropane carboxylatede (R) a-éthynyl 3-phénoxy benzyle] |  | activité remarquable | 0,825 ng par individu |  |  |
| CC1(C)[C@H](C(=O)O[C@H](C#N)c2cccc(Oc3ccccc3)c2)[C@@H]1/C=C\C(=O)OCC(F)(F)F [Exemple 1, (1 R cis) 2,2-diméthyl 3/(Z) 3-(2,2,2-trifluoroéthoxy) 3-oxo 1-propényl/ cyclopropane carboxylatede (S) a-cyano 3-phénoxy benzyle] | bonne activité | activité remarquable | 1,115 ng par individu | 3,534 mn | activité (conclusion) [3]: bonne activité; DL 50 (ng par individu) [3]: 4,699 ng par individu; activité (essai adulticide) [4]: très bonne activité; activité (conclusion) ([5]; conclusion in words on the tarsal contact test): très bonne activité; concentration létale 50 (CL 50) ([5]; male cockroaches, 1 h contact with dried deposit in Petri dish, mortality checked at 24 h, 48 h, 3 and 5 days): 0,216 mg/m2 |
| C#CCN1CC(=O)N(COC(=O)[C@@H]2[C@H](/C=C\C(=O)OCC(F)(F)F)C2(C)C)C1=O [Exemple 26, (1R cis) 2,2-diméthyl-3-/(Z)-3-oxo 3-(2,2,2-trifluoro éthoxy) 1-propényl/ cyclopropane carboxylatede (3-propargyl 2,5-dioxoimidazolidinyl) méthyle] | bonne activité |  |  |  | KT 50 en mn ([1]; Concentration 0,25 g/l): 1,550 mn |
| CC1(C)[C@H](C(=O)O[C@H](C#N)c2cccc(Oc3ccccc3)c2)[C@@H]1/C=C\C(=O)OCCF [Exemple 35, (1R cis) 2,2-diméthyl-3-/(Z)-3-oxo 3-(2-fluoroéthoxy) 1-propényl/ cyclopropane carboxylatede (S) a-cyano 3-phénoxy benzyle] | bonne activité |  |  | 2,894 mn | activité (conclusion) [3]: bonne activité; DL 50 (ng par individu) [3]: 0,544 ng par individu |

From patent publication EP0048186B1, “Cyclopropane-carboxylic-acid derivatives, their preparation, their use in combating vegetal parasites, animals and locations, their compositions, and intermediates” (ROUSSEL-UCLAF, priority 1980, dated 1982)
